From patent US20250368648A1, “MULTI-CYCLIC IRAK AND FLT3 INHIBITING COMPOUNDS AND USES THEREOF” (CHILDREN'S HOSPITAL MEDICAL CENTER, priority 2022, published 2025) come the findings set out here.

pIC50: −log10 of the molar value.

One test addresses T1, IRAK4 (Homo sapiens, UniProt Q9NWZ3).
T1 sequence (Q9NWZ3 1-460): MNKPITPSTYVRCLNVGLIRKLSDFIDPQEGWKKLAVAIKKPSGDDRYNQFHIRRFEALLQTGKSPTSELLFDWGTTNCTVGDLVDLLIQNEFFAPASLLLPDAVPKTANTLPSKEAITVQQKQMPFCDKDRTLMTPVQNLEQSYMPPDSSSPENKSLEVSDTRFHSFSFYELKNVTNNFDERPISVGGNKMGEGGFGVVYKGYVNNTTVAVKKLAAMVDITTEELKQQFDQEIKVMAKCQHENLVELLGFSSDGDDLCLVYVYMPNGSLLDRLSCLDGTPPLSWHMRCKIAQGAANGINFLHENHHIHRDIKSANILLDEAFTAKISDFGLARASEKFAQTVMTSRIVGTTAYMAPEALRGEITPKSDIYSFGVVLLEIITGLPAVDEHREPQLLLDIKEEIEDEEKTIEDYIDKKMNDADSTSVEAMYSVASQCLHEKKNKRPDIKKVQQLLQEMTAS
Briefly: RBC HotSpot Kinase Assay, IRAK4. The format is biochemical. On the set-up: purchased RBC (Reaction Biology) HotSpot assay. The settings on record: HotSpot functional assay, isolated kinase enzyme, 33P-ATP. Put shortly:
(§1)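 Isolated kinases, possibly truncated or lacking regulatory receptor regions, were preincubated with compound for 20 min at room temp in 20 mM Hepes pH 7.5, 10 mM MgCl2, 1 mM EGTA, 2 mM DTT, 1% DMSO. Reactions were started with ^33P-ATP and run 2 h at room temperature; activity was read by P81 filter binding.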

The next test addresses T2, FLT3 (Homo sapiens, UniProt P36888).
T2 sequence (P36888 27-993): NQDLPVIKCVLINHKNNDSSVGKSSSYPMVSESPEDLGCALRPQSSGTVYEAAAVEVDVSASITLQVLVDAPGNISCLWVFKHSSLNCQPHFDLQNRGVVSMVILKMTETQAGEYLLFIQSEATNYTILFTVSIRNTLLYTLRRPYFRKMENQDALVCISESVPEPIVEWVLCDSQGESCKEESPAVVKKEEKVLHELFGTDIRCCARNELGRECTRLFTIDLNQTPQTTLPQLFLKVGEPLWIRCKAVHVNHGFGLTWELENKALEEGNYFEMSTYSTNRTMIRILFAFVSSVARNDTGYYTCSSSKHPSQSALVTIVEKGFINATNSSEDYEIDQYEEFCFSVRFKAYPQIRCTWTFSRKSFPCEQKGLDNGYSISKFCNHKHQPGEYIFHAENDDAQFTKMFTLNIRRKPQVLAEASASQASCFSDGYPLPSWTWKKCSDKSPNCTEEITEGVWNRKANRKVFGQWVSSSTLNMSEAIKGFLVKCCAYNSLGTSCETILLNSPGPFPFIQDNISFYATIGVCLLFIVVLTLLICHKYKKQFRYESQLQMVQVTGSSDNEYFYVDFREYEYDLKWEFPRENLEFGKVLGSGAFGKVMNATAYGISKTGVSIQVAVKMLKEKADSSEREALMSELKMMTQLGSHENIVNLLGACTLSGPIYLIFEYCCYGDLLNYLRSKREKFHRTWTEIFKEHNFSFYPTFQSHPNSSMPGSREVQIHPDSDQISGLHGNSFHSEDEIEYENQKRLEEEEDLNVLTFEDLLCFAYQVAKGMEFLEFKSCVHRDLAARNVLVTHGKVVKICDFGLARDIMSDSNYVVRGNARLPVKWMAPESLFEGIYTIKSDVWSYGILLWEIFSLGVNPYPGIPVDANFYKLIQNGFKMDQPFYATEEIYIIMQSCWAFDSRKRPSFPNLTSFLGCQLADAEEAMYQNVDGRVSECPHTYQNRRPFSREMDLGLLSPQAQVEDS
Description: RBC HotSpot Kinase Assay, FLT3. The conditions noted are these: HotSpot functional assay, isolated kinase enzyme, 33P-ATP. Further details: purchased RBC (Reaction Biology) HotSpot assay. In kind it is biochemical. Put shortly:
as §1

Regarding `COc1cc2ncc(-c3nc(N[C@H]4CNC[C@@H]4F)c(F)cc3F)n2nc1C1CC2(CCC2)C1` [Compound 12a, 3,5-difluoro-N-((3S,4S)-4-fluoropyrrolidin-3-yl)-6-(7-methoxy-6-(spiro[3.3]heptan-2-yl)imidazo[1,2-b]pyridazin-3-yl)pyridin-2-amine], the pIC50 was 8.22 against IRAK4 and greater than 9.30 on FLT3.
`COc1cc2ncc(-c3nc(N[C@@H]4CCCNC4)c(F)cc3F)n2nc1C(C)(O)C(F)(F)F` (single isomer, unassigned) [Compound 81a]: the pIC50 is 7.23 at IRAK4 and greater than 9.30 against FLT3.
The corresponding values for `COc1cc2ncc(-c3nc(N[C@H]4CNCC[C@@H]4F)c(F)cc3F)n2nc1C(C)(O)C(F)(F)F` (single isomer, unassigned) [Compound 77a] are 7.80 and greater than 9.30.
In the case of `COc1cc2ncc(-c3nc(N[C@H]4CNCC[C@@H]4F)c(F)cc3F)n2nc1C1CC2(CCC2)C1` [Compound 10a, 3,5-difluoro-N-((3S,4S)-4-fluoropiperidin-3-yl)-6-(7-methoxy-6-(spiro[3.3]heptan-2-yl)imidazo[1,2-b]pyridazin-3-yl)pyridin-2-amine], the pIC50 against IRAK4 was 7.66; on FLT3, greater than 9.30.
The corresponding values for `COc1cc2ncc(-c3nc(N[C@H]4CNC[C@@H]4F)c(F)cc3F)n2nc1C(C)(O)C(F)(F)F` (single isomer, unassigned) [Compound 80a] are 7.62 and greater than 9.30.
With `COc1cc2ncc(-c3nc(N[C@H]4CNCC[C@@H]4F)c(F)cc3F)n2nc1C1CCC1` [Compound 15a, 6-(6-cyclobutyl-7-methoxyimidazo[1,2-b]pyridazin-3-yl)-3,5-difluoro-N-((3S,4S)-4-fluoropiperidin-3-yl)pyridin-2-amine], the pIC50 against IRAK4 was 8.70; on FLT3, greater than 9.30.
For `COc1cc2ncc(-c3nc(N[C@H]4CNCC[C@@H]4F)c(F)cc3F)n2nc1C12CC(C1)C2` [Compound 67a, 6-(6-(bicyclo[1.1.1]pentan-1-yl)-7-methoxyimidazo[1,2-b]pyridazin-3-yl)-3,5-difluoro-N-((3S,4S)-4-fluoropiperidin-3-yl)pyridin-2-amine], the negative logarithm of the IC50 (pIC50) against IRAK4 is 8.52; on FLT3 it was greater than 9.30.
